Source: ChEMBL document CHEMBL5038574, “Selaginellin Derivatives from Selaginella tamariscina and Their Upregulating Effects on Low-Density Lipoprotein Receptor Expression” (J Nat Prod, 2021)
Activity calls are given as the source filed them. The rule behind the calls is not given here.

Key:
Format in all cases: functional, cell-based
HepG2 [1] = test: Up regulation of LDLR mRNA expression in human HepG2 cells at 50 uM for 24 hrs by qPCR analysis
HepG2 [2] = test: Up regulation of protein expression in human HepG2 cells at 10 to 50 uM for 24 hrs by western blot analysis; details: dose 10-50 µM
HepG2 [3] = test: Up regulation of SREBP mRNA expression in human HepG2 cells at 50 uM for 24 hrs by qPCR analysis
HepG2 [4] = test: Up regulation of APOC2 mRNA expression in human HepG2 cells at 50 uM for 24 hrs by qPCR analysis
HepG2 [5] = test: Up regulation of APOE mRNA expression in human HepG2 cells at 50 uM for 24 hrs by qPCR analysis

With `O=C1C=CC(=C(c2ccc(O)cc2)c2c(-c3ccc(O)cc3)ccc(CO)c2C#Cc2ccc(O)cc2)C=C1` the Activity (HepG2 [1]) was “inactive”.

For `COc1ccc(C(=C2C=CC(=O)C=C2)c2c(-c3ccc(O)cc3)ccc(COc3ccc(C(=C4C=CC(=O)C=C4)c4c(-c5ccc(O)cc5)ccc(CO)c4C#Cc4ccc(O)cc4)cc3)c2C#Cc2ccc(O)cc2)cc1`, the Activity (HepG2 [1]) was “inactive”.

In the case of `O=C1C=CC(=C(c2ccc(O)cc2)c2c(-c3ccc(O)cc3)ccc(COc3ccc([C@@]4(c5ccc(O)cc5)c5cc(O)ccc5-c5ccc(CO)c(C#Cc6ccc(O)cc6)c54)cc3)c2C#Cc2ccc(O)cc2)C=C1`, the Activity (HepG2 [1]) is reported as “inactive”.

With `O=C1C=CC(=C(c2ccc(OCc3ccc(-c4ccc(O)cc4)c(C(=C4C=CC(=O)C=C4)c4ccc(O)cc4)c3C#Cc3ccc(O)cc3)cc2)c2c(-c3ccc(O)cc3)ccc(CO)c2C#Cc2ccc(O)cc2)C=C1` the Activity (HepG2 [1]) was “inactive”.

`O=C1C=CC(=C(c2ccc(O)cc2)c2c(-c3ccc(O)cc3)ccc(COCc3ccc(-c4ccc(O)cc4)c(C(=C4C=CC(=O)C=C4)c4ccc(O)cc4)c3C#Cc3ccc(O)cc3)c2C#Cc2ccc(O)cc2)C=C1` was tested, and the Activity (HepG2 [1]) was “inactive”.

In the case of `COCc1ccc2c(c1CC(=O)c1ccc(O)cc1)C(c1ccc(OC)cc1)(c1ccc(OC)cc1)c1cc(O)ccc1-2`, the Activity (HepG2 [1]) is reported as “Active”, the Activity (HepG2 [2]) is reported as “Active” and the Activity (HepG2 [3]) is reported as “Active”. The Activity (HepG2 [4]) was “Active” and the Activity (HepG2 [5]) was “Active”.
